# Data published in patent publication US20240226342A1, “REACTIVE OXYGEN SPECIES IMAGING AGENTS” (Washington University, priority 2022, published 2024).
# “And” between values parts separate entries of the source, which are not always exact repeats. Identical values can stand only once.
# Experiments:
# [1] = Metabolite analysis after incubation in human serum or plasma (QC radio-HPLC); type: in vitro ADME; conditions: 37° C., upto 1 h
# Text: Oxidative imbalance and functional impairment of mitochondria may mediate pathogenesis of neurodegenerative diseases and mitochondria are among the prominent intracellular site for ROS generation. Thus, a 2nd generation redox-sensitive neuroROS tracer was designed (also identified as either as SLN 128 or 12 (noncarrier added) or ^18F-13 (PET tracer); see e.g., FIG. 2) for the detection of total ROS within cells undergoing pro-oxidative stage. While the unlabeled/noncarrier counterpart of the probe 12 was synthesized and characterized through standard analytical methods (Proton NMR, proton-decoupled 13C-NMR, HRMS, Elemental analysis), the carrier added ^18F-13 (Lab ID:18F-SLN128) was synthesized through a reaction between the tosylated precursor 11 and KF{18F}-/Kryptofix 222 and followed by deprotection of methoxymethyl ether 11 in situ with TFA as shown (see e.g., FIG. 2), purified on semipreparatory C-18 column, the desired fraction with a Rt=12 min was collected, concentrated, reconstituted in 5% ethanol/95%sterile saline and analyzed for purity on QC radio-HPLC (radiochemical yield: 15-20%; radiochemical purity >99%; specific activity:1400-1700 Ci/mmole) and identified by spiking with the noncarrier added/unlabeled counterpart. […] For analysis of metabolites, ^18F-SLN-128 was incubated with either human serum or plasma at 37° C. as a function of time and analyzed on QC Radio-HPLC.
# [2] = Quantitative biodistribution in normal mice; type: in vivo
# Method: FIG. 8 is a line graph showing biodistribution of 18F-SLN128 in normal BI6 mice in accordance with the present disclosure. Shown is uptake (5 min, 60 min, 2 h) in brain and other critical organs quantified in terms of percent injected dose per gram of the tissue (% ID/g).
# Lipopolysaccharide (LPS), is an endotoxin, released from Gram-negative bacteria. Next, the ability of SLN128 to detect either LPS or 3-Nitropropionic acid (3-NP) induced ROS in human cells was evaluated through live-cell fluorescence imaging. LPS is detected by toll-like receptor 4 (TLR4), a broadly expressed pattern recognition receptor found both on different cell types, including glial cells, and neurons. TLR4 engagement triggers the generation of mitochondrial superoxide from electron transport complex I, which in turn promotes bacterial killing. LPS treatment also triggers increased cytokine and chemokine expression in brain thus driving inflammation. Furthermore, 3-NP is an irreversible inhibitor of mitochondrial succinate dehydrogenase (SDH), which has been used to explore the molecular mechanisms of cell death associated with mitochondrial dysfunction and neurodegeneration. […] To this end, intracellular localization of SLN-128 in either the presence or absence of mitotracker deep red (control) was simulataneously assessed in either the LPS or 3-NP stimulated human glioblastoma U87 cells (see e.g., FIG. 4). […] Further, uptake of SLN 128 in U87 cells was compared under identical conditions with mitoSOX, a probe extensively used for assessing mROS. […] To test, whether SLN128 has ability to monitor therapeutic effects in U87 cells under identical conditions, SLN128 was incubated in either presence or absence of resveratrol (commonly used for mitigating mitochondrial ROS production) under 3 different conditions. The probe uptake was quantified as corrected total cell fluorescence (CTCF) using image J as described earlier. […] (see e.g., FIG. 6). […] Uptake in brain and other critical organs was analyzed in terms of percent injected dose per gram of the tissue (% ID/g).
# For comparison, brain uptake ratios of [^18F]-AVID-45 ([^18F]-Florbetapir)(2 min/2 h) and [^18F]-Florbetaben (2 min/4 h) in normal mice are 4.07 (% ID/g (brain): 2 min: 7.33±1.54; 2 h: 1.80±0.07; 7.33/1.80; 4.07) 57 and 5.0 (% ID/g (brain): 2 min: 4.77; 4 h: 0.95; 4.77/0.95; 5.02) 58, respectively.
# [3] = Dynamic PET/MR brain imaging of normal rhesus monkey; type: in vivo
# Method: FIG. 12A-FIG. 12B is an exemplary embodiment showing dynamic MR/PET brain imaging of normal rhesus monkey (10 Kg) following intravenous injection of 18F-SLN-128 (5.8 mCi) over 2 h in accordance with the present disclosure. FIG. 12A includes images showing summation of PET data over 10 min and co-registered with T2-weighted MR image of the monkey for anatomical reference. FIG. 12B is a line graph showing SUVs as a time-activity curve for the tracer influx and clearance from important regions of the brain.
# Of note, these NHP brain SUV values are 2.5-fold higher than reported for ^18F-ROStrace thus likely to translate into higher contrast brain images compared with ^18F-ROStrace (SUV=1.35). […] Tissue time-activity curves (TACs) also show fast initial uptake with maximum projection of activity at 7-10 min followed by clearance of ^18F-SLN-128 at later time-points from amygdala, caudate, cerebellum, cortex (frontal, insular, occipital and temporal), cerebellum, hippocampus, putamen, thalamus, and white matter of rhesus monkey brain.
smiles,measurement,setting,value
COc1ccc2c(c1)N(C)C(c1ccc(O)c(OCC[18F])c1)c1cccn1-2 (stereo not drawn) [18F-SLN-128],metabolic stability in human serum,[1],remains non-metabolized
same,brain uptake clearance ratio relative to [18F]-AV-45,[2]; healthy mice,2.9 fold
same,brain uptake clearance ratio relative to [18F]-Florbetaben,[2]; healthy mice,2.3 fold
same,clearance ratio relative to the benchmark (≥3.5) for crossing the blood-brain barrier,"[2]; mouse, in vivo",3.3 fold
same,brain clearance ratio 5 min/60 min,[2]; normal mice,11.4 and 11.3
same,clearance from other critical organs,[2]; normal mice,excreted from other critical organs over 1 h
same,defluorination / bone accumulation,[2]; normal mice,without defluorination (no bone accumulation)
same,brain uptake,"[2]; normal mice, 5 min post tail-vein injection",4.11±0.32 % ID/g
same,brain uptake,"[2]; normal mice, 60 min post tail-vein injection",0.36±0.01 % ID/g
same,clearance from brain regions,[3]; later time points,excreted from critical regions at later-time points
same,nonspecific retention in normal monkey brain,[3]; over 2 h,Insignificant nonspecific retention
same,time of maximum SUV,[3]; rhesus monkey,7 to 10 min
same,NHP brain SUV relative to 18F-ROStrace,"[3]; rhesus monkey, in vivo",2.5 fold
same,maximum Standard Uptake Value (SUV) in brain,"[3]; rhesus monkey, intravenous injection",3.5
same,"metabolites in venous blood (radio-HPLC, γ-counter)",[3]; samples at an interval of 3 min over 2 hours,did not show any metabolite
